Type in all cases: in vivo
Data set [1] has as its system spinal cord ischemia induced by temporary occlusion of the infrarenal aorta. The data set can be described thus: rabbit reversible spinal cord ischemia model (RSCIM). The protocol:
In a rabbit reversible spinal cord ischemia model (RSCIM). ABHS was administered (25 mg/kg) intravenously (i.v.) 5 or 30 min following the start of occlusion to groups of rabbits exposed to ischemia induced by temporary occlusion of the infrarenal aorta. The group P50 represents the duration of ischemia (min) associated with a 50% probability of resultant permanent paraplegia.

Data set [2] deals with small clot embolic strokes in rabbits. Nature of the data set: rabbit small clot embolic stroke model (RSCEM), quantal analysis of behavior. The text has this:
The invention used a rabbit small clot embolic stroke model (RSCEM) that reproduces many facets of human AIS including a well-defined clinical endpoint. The RSCEM utilizes administration of a suspension of small blood clots to induce strokes, and behavioral deficits that can be measured quantitatively. Moreover, the RSCEM is useful to conduct studies testing the effects of single drugs or drug combinations such as a neuroprotective agent (e.g., NXY-059) plus a thrombolytic (Tenecteplase, Alteplase, Desmoteplase and the like). Since it is likely that a drug combination will be used for patient management it is important to determine whether there are any interactions (positive or negative) between the compounds when administered following embolic strokes.
Methods: Male New Zealand white rabbits were anesthetized using halothane (5% induction, 2% maintenance by facemask), the bifurcation of the right carotid artery was exposed and the external carotid was ligated just distal to the bifurcation, where a catheter was inserted into the common carotid and secured with ligatures. The incision was closed around the catheter with the distal ends left accessible outside the neck; the catheter was filled with heparinized saline and plugged with an injection cap. Rabbits were allowed to recover from anesthesia for a minimum of 3 h until they awoke and behaved normally.
For the RSCEM, microclots were prepared from blood drawn from a donor rabbit and allowed to clot at 37° C. All rabbits in the study received injections of the same sized microclots. For embolization, clot particles were rapidly injected through the carotid catheter and both the syringe and catheter were flushed with 5 ml of normal saline.
Treatment Regimens: (A) Dose-Response Curve: NXY-059 was administered IV at a dose of 0.1-100 mg/kg infused over 30 min beginning 1 hour following embolization. (B) Therapeutic Window: NXY-059 (100 mg/kg) was given beginning 1, 3 or 6 hours following embolization. (C) Tenecteplase Dosing: Tenecteplase was administered IV at a dose of 0.9 mg/kg as a bolus injection given over one minute was administered 1 or 6 hours following embolization. (D) Combination studies: NXY-059 was administered IV at a dose of 100 mg/kg infused over 30 min and Tenecteplase was administered IV at a dose of 0.9 mg/kg beginning 1 or 6 hours following embolization.
Quantal Dose-Response Analysis: For the RSCEM, a quantal dose-response data analysis technique was used. A wide range of lesion volumes is induced to generate both normal and abnormal animals. Using 3 or more different doses of microclots generated each quantal analysis curve. […] Each animal is rated as either normal or abnormal (including dead animals), and inter-rater variability is very low (<5%). […] With this simple rating system, the composite result for a group of animals is quite reproducible. The P50 values are then calculated. These parameters are measures of the amount of microclots (in mg) that produce neurologic dysfunction in 50% of a group of animals. A separate curve is generated for each treatment condition that was tested. The data were analyzed using the t-test, which included the Bonferroni correction where appropriate.
Using the RSCEM model as described above male New Zealand white rabbits weighing 2.2-2.6 Kg were anesthetized and a catheter was inserted into the common carotid artery through which microclots were injected. Briefly, the bifurcation of one carotid artery was exposed and the external carotid was ligated just distal to the bifurcation. A catheter was inserted into the common carotid and secured with ligatures. The incision was closed around the catheter so that the distal end was accessible outside the animal's neck. The catheter was then filled with heparinized saline and plugged with an injection cap. Rabbits were allowed to recover from anesthesia until they were awake and behaving normally. […]

The test system is the same in data set [3]. Described as above. As to conditions: for Observation: ABHS 25 mg/kg IV; for Abnorm / Norm: ABHS 25 mg/kg, 5 min.
The mark [4] stands for this setting: ABHS 25 mg/kg, 5 min, clot dose 0.38 mg.

“Also recorded” adds a separate entry of the source.

With `CC(=O)[C@H]1CC[C@H]2[C@@H]3CC[C@@H]4C[C@H](OC(=O)CCC(=O)O)CC[C@]4(C)[C@H]3CC[C@]12C` [ABHS, 3-alpha-ol-5-beta-pregnan-20-one hemisuccinate], the “effect on tolerance to ischemia” value in data set [1] (ABHS administered 30 min following the start of occlusion) was “increased the tolerance to ischemia”. For the same compound, in data set [1] (ABHS injected 5 min following the start of ischemia and again 24 h after ischemia), the “persistence of effect” value was “persistent effect of the drug at 48 h”. The Observation result is reported as “Sedation” in data set [2] (ABHS 25 mg/kg IV, 60 min following embolization); “Sedation” in data set [3] (5 min following embolization); “Sedation” in data set [3] (180 min following embolization). Further, in data set [2] (setting [4]), the “Abnorm (rabbits rated behaviorally abnormal)” value came out at 0. For the same compound, the “Norm (rabbits rated behaviorally normal)” value in data set [2] (setting [4]) worked out at 1. For the same compound, the Abnorm in data set [2] (ABHS 25 mg/kg, 5 min, clot dose 1.99 mg) is listed as 1; in data set [2] (ABHS 25 mg/kg, 5 min, clot dose 2.21 mg), 1; in data set [2] (ABHS 25 mg/kg, 5 min, clot dose 4.35 mg), 1; in data set [3] (clot dose 0.53 mg), 0; in data set [3] (clot dose 1.42 mg), 0; in data set [3] (clot dose 1.60 mg), 0. For the same compound, the Abnorm in data set [3] (clot dose 1.72 mg) is given as 0; in data set [3] (clot dose 2.31 mg) it was 0; in data set [3] (clot dose 2.89 mg), 1; in data set [3] (clot dose 2.97 mg), 0; in data set [3] (clot dose 3.38 mg), 1; in data set [3] (clot dose 3.88 mg), 1. In data set [3] (clot dose 4.67 mg), this compound yielded an Abnorm of 0. In addition, the Norm in data set [2] (ABHS 25 mg/kg, 5 min, clot dose 2.97 mg) is 1; in data set [3] (clot dose 0.53 mg) it was 1; in data set [3] (clot dose 1.42 mg) it was 1; in data set [3] (clot dose 1.60 mg), 1; in data set [3] (clot dose 1.72 mg) it was 1; in data set [3] (clot dose 1.99 mg), 0. Also, the Norm was 0 in data set [3] (clot dose 2.21 mg); 1 in data set [3] (clot dose 2.31 mg); 0 in data set [3] (clot dose 2.89 mg); 0 in data set [3] (clot dose 3.38 mg); 0 in data set [3] (clot dose 3.88 mg); 0 in data set [3] (clot dose 4.35 mg). Further, the Norm in data set [3] (clot dose 4.67 mg) is given as 1. Further, the “effect on therapeutic window of tPA” value in data set [2] (FIG. 7) is on record as “increases the therapeutic window for tPA”.
Regarding `CC(C)(C)[N+]([O-])=Cc1ccc(S(=O)(=O)O)cc1S(=O)(=O)O.[Na].[Na]` [NXY-059, disodium 2,4-disulfophenyl-N-tert-butylnitrone], the P50 in data set [2] (NXY-059 100 mg/kg, 6 hours following embolization, not significant vs vehicle) was found to be 1.35 ± 0.37 mg. Moreover, the “effect on P50 vs vehicle” value in data set [2] (NXY-059 doses from 1-100 mg/kg, 1 hour following embolization, p<0.05) is on record as “significantly increased the P50”; in data set [2] (NXY-059 lower dose (0.10 mg/kg), 1 hour following embolization, p>0.05), “did not”.
Take Tenecteplase: in data set [2] (Tenecteplase 0.9 mg/kg IV bolus, 1 hour following embolization, 24 hours), the P50 worked out at 2.76 ± 0.37 mg. The “increase of P50 over control” value in data set [2] (Tenecteplase 0.9 mg/kg, 1 hour following embolization) worked out at 130%. Besides, the “effect on P50 vs control” value in data set [2] (Tenecteplase 0.9 mg/kg, 6 hours following embolization) is listed as “did not increase the P50 compared to control; also recorded: neither Tenecteplase, nor NXY-059, significantly (p>0.05) affect P50 values”.
For the compound `CC12CC3CC(C)(C1)CC(N)(C3)C2` [memantine], in data set [2] (FIG. 8), the “effect on efficacy of low-dose tPA” value is “increases the efficacy of low-dose tPA”.

For the origin of these results see patent US20070167419A1, “TREATMENT FOR EMBOLIC STROKE” (priority 2005, published 2007).
